Experiments:
Caco-2 cells = assay: Endosomal trafficking proteins in Caco-2 cells (immunoblot, endosomal fractions); format: cell-based, human; settings: lost if 3-MA or CFTR inhibitor added
Description: (§1) Human colon adenocarcinoma-derived Caco-2 and T84 cells were obtained from the ATCC. Cells were maintained in T25 flask in Modified Eagle Medium (MEM) for Caco-2, or Ham's F12+DMEM (1:1) for T84, supplemented with 10% fetal bovine serum (FBS), 2 mM Glutamine+1% Non Essential Amino Acids (NEAA) and the antibiotics penicillin\streptomycin (100 units/ml) (all reagents from Lonza) (Luciani, A., et al. 2010. Cells were grown in Transwells (Corning, 3470 or 3460) under the normal condition (Luciani, A., et al. 2012). Briefly, 8×10^4 or 5×10^5 cells were seeded in 6.5-mm diameter or 12-mm diameter, respectively, and grown until the RT reached 800 to 1,200 Ω·cm2. Transwells with a pore size of 0.4 μm were used. Medium in both the apical and basolateral chambers was changed every other day. Cells were treated with 20 μg/ml of either α-gliadin peptide P31-43 or […] or scrambled PGAV or modified P31-43 either biotin-tagged or not, for different time point (from 1 h short challenge up to 24 h). Cells were also treated with 50 or 100 μg/ml of P57-68 or PGAV peptides for 3 h. Caco-2 or T84 cells were also treated with: CFTR potentiators VX-770 (10 μM) or VX-532 (20 μM) (Selleck chemicals) or Genistein (10 μM) (Sigma-Aldrich) or in presence or absence of CFTR inhibitor172 (CFTRinh172, 20 μM) or 3-methyl-adenine (3-MA, 20 μM) (Calbiochem), Z-DON (20 nM, Zedira) or BAPTA-AM (10 μM, Calbiochem).
The whole lysate or membrane fraction proteins of cell lines and mice intestine homogenates were obtained from treated and untreated cells or mice as described. The equal amount of protein were resolved by SDS-PAGE gel and blotted with antibodies against: SQSTM1, (Sigma Aldrich, 108k4767) 1:1000, PPARγ (Santa Cruz Biotechnology, sc7273) 1:500, BECN1 (Abcam, ab58878) 1:1000, CFTR clone M3A7 (Abcam, ab4067) 1:500, phospho-ERK1/2 (php42/44, Cell Signaling Technology, #91101) 1:1000, UVRAG (Santa Cruz Biotechnology sc8215) 1:1000, NHERF-1 (BD, 611161) 1:1000, EZRIN (BD, 610603) 1:1000, hVps34 (SigmaV9764) 1:300, biotin (Abcam, ab1227) 1:2000, PKAr2a (BD, 610625) 1:500, Ubiquitin (Cell Signaling clone P4D1, #3936) 1:1000, CHIP (Calbiochem PC711) 1:500, Caspase-1 p10 (M-20) (Santa Cruz Biotechnology, sc-514) 1:200, NLRP3 (Abcam, ab4207), 1:500, IDO1 (monoclonal; cv152) 1:1000^[80], used as primary antibodies. Normalization was performed by probing the membrane with anti-β-actin (Cell Signaling, #4970) 1:1000, anti-Gapdh (Sigma-Aldrich, G8795) 1:1000 and anti-flottilin (Abcam ab15148) 1:1000 antibodies. Immunoprecipitations of endogenous proteins were performed on 500 μg of lysates from Caco-2 cells. The proteins were incubated for 12-18 h at 4° C. with 10 ug\ml of specific antibody followed by the addition of Protein A/G-agarose beads for 4 h at 4° C. […]

CFTR = biological target: T1, CFTR (Homo sapiens, UniProt P13569); assay: CFTR channel function in intestinal epithelial cells (forskolin-induced Isc in Ussing chambers; SPQ iodide efflux); format: cell-based; settings: VX-770 10 μM, VX-532 20 μM, Genistein 10 μM; Caco-2 or T84 cells
T1 construct: Immunoprecipitations of endogenous proteins were performed on 500 μg of lysates from Caco-2 cells; host or cells: Caco-2, T84
Description: Human colon adenocarcinoma-derived Caco-2 and T84 cells (Barone, M. V. et al. 2014; Luciani, A. et al. 2010) were obtained from the ATCC. Cells were maintained in T25 flask in Modified Eagle Medium (MEM) for Caco-2, or Ham's F12+DMEM (1:1) for T84, supplemented with 10% fetal bovine serum (FBS), 2 mM Glutamine+1% Non Essential Amino Acids (NEAA) and the antibiotics penicillin\streptomycin (100 units/ml) (all reagents from Lonza). Caco-2 cells were grown in Transwells (Corning, 3470 or 3460) under the normal condition. Briefly, 8×10^4 or 5×10^5 cells were seeded in 6.5-mm diameter or 12-mm diameter, respectively, and grown until the RT reached 800 to 1,200 Ω·cm^2. Transwells with a pore size of 0.4 μm were used. Medium in both the apical and baso lateral chambers was changed every other day. Cells were treated with 20 μg/ml of either with the α-gliadin peptide comprising the P31-43 amino acid sequence of α-gliadin LGQQQPFPPQQPY (SEQ ID 1) (below referred to as P31-43), which is known to induce an enterocyte stress response (Meresse, B. et al.2009; Barone, M. V. et al. 2014; Luciani, A. et al. 2010), the T-cell activating α-gliadin peptide comprising the P57-68 amino acid sequence of α-gliadin (QLQPFPQPQLPY SEQ ID 2)) (below referred to as P57-68) (Maiuri, L., et al. 2003; Meresse, B. et al.2009; 30 Barone, M. V. et al. 2014), or the scrambled GAVAAVGVVAGA (SEQ ID 3) control peptide (below referred to as PGAV), or with different modified P31-43, either biotin-tagged or not, for different time points (from 1 h short challenge up to 24 h). Cells were also treated with 50 or 100 5 μg/ml of P57-68 or PGAV peptides for 3 h.
Caco-2 or T84 cells were also treated with: CFTR potentiators VX-770 (Ivacaftor) (10 μM) or VX-532 (20 μM) (Selleck chemicals) or Genistein (10 μM) (Verkman, A. S. et al. 2005; Jih, K. Y. et al. 2013) (Sigma-Aldrich) or in presence or absence of CFTR inhibitor172 (CFTRinh172, 20 μM).
Human colon adenocarcinoma-derived Caco-2 and T84 cells were obtained from the ATCC. Cells were maintained in T25 flask in Modified Eagle Medium (MEM) for Caco-2, or Ham's F12+DMEM (1:1) for T84, supplemented with 10% fetal bovine serum (FBS), 2 mM Glutamine+1% Non Essential Amino Acids (NEAA) and the antibiotics penicillin\streptomycin (100 units/ml) (all reagents from Lonza) (Luciani, A., et al. 2010. Cells were grown in Transwells (Corning, 3470 or 3460) under the normal condition (Luciani, A., et al. 2012). Briefly, 8×10^4 or 5×10^5 cells were seeded in 6.5-mm diameter or 12-mm diameter, respectively, and grown until the RT reached 800 to 1,200 Ω·cm2. Transwells with a pore size of 0.4 μm were used. Medium in both the apical and basolateral chambers was changed every other day. […]

PM-associated CFTR = biological target: T2, PM-associated CFTR (Homo sapiens, UniProt P13569); assay: CFTR plasma membrane disposal in Caco-2 cells (membrane fractions); format: cell-based
T2 construct: Immunoprecipitations of endogenous proteins were performed on 500 μg of lysates from Caco-2 cells; host or cells: Caco-2, T84
Description: as §1
The whole lysate or membrane fraction proteins of cell lines and mice intestine homogenates were obtained from treated and untreated cells or mice as described. The equal amount of protein were resolved by SDS-PAGE gel and blotted with antibodies against: SQSTM1, (Sigma Aldrich, 108k4767) 1:1000, PPARγ (Santa Cruz Biotechnology, sc7273) 1:500, BECN1 (Abcam, ab58878) 1:1000, CFTR clone M3A7 (Abcam, ab4067) 1:500, phospho-ERK1/2 (php42/44, Cell Signaling Technology, #91101) 1:1000, UVRAG (Santa Cruz Biotechnology sc8215) 1:1000, NHERF-1 (BD, 611161) 1:1000, EZRIN (BD, 610603) 1:1000, hVps34 (SigmaV9764) 1:300, biotin (Abcam, ab1227) 1:2000, PKAr2a (BD, 610625) 1:500, Ubiquitin (Cell Signaling clone P4D1, #3936) 1:1000, CHIP (Calbiochem PC711) 1:500, Caspase-1 p10 (M-20) (Santa Cruz Biotechnology, sc-514) 1:200, NLRP3 (Abcam, ab4207), 1:500, IDO1 (monoclonal; cv152) 1:1000^[80], used as primary antibodies. Normalization was performed by probing the membrane with anti-β-actin (Cell Signaling, #4970) 1:1000, anti-Gapdh (Sigma-Aldrich, G8795) 1:1000 and anti-flottilin (Abcam ab15148) 1:1000 antibodies. Immunoprecipitations of endogenous proteins were performed on 500 μg of lysates from Caco-2 cells. The proteins were incubated for 12-18 h at 4° C. with 10 ug\ml of specific antibody followed by the addition of Protein A/G-agarose beads for 4 h at 4° C. The beads were then washed three times with lysis buffer and Laemmli's sample buffer was added to the samples. The membranes were then blotted with: CFTR clone CF3 (Abcam, ab2784) 1:1000, TG2 (clone CUB7402; NeoMarkers) 1:1000, CHIP (Calbiochem PC711) 1:500, Ubiquitin (Cell Signaling clone P4D1 3936), isopeptide (Abcam 422) 1:1000, PKAR2 (BD 610625) 1:500.
Protein from membrane fractionation were obtained as described. Cells were homogenized with a PotterElvehjem pestle and centrifuged at 2300×g for 15 min at 4° C. […]

T2 sequence (P13569 whole entry): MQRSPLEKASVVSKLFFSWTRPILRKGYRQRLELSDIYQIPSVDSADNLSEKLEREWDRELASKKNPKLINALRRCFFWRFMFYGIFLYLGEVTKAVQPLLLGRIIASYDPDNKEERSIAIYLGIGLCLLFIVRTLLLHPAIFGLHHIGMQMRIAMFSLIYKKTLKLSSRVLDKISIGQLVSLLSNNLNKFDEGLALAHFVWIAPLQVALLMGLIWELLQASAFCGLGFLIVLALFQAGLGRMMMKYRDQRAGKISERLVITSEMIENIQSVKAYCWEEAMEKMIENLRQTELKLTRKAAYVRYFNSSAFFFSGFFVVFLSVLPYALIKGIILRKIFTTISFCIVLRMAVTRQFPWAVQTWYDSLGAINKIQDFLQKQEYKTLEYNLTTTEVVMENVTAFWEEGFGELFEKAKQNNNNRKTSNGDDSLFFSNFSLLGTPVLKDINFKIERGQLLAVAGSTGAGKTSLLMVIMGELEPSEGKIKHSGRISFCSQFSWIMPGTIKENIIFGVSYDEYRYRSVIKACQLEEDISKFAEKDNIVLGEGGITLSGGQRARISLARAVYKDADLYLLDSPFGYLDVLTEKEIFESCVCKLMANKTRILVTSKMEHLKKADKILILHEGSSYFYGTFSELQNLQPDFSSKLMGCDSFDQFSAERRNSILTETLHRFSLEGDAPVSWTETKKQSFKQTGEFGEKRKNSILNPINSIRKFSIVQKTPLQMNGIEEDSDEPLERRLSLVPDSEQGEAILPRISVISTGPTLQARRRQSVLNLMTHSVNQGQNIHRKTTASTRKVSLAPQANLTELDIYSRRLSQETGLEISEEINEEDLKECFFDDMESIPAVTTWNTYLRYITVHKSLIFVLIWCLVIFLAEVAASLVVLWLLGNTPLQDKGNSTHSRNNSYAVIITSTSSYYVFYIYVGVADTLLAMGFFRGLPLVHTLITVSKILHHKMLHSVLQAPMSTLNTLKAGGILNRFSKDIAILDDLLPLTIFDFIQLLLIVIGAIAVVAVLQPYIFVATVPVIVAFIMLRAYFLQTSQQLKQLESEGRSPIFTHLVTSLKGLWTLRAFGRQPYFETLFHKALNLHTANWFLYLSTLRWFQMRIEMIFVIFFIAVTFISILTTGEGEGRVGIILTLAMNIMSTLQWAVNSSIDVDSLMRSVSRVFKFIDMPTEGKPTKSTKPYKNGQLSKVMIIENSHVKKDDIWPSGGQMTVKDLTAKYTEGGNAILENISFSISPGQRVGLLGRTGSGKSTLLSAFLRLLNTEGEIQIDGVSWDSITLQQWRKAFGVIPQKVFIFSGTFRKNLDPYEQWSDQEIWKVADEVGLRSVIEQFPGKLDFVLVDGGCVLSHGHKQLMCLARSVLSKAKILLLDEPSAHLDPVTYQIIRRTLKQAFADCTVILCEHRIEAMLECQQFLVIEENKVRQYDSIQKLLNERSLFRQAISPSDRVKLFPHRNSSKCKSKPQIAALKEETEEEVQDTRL
T1 sequence (P13569 whole entry): as above

effect on P31-43-induced reduction of PM-associated CFTR (PM-associated CFTR): counteracted
Structure (SMILES): Cc1ccc(O)c(-c2cc(-c3ccccc3)[nH]n2)c1 [VX-532, 4-Methyl-2-(5-phenyl-1Hpyrazol-3-yl)-phenol]
effect on P31-43-induced reduction of BECN1, hVps34, UVRAG, Rab5 and Rab7 (Caco-2 cells): counteracted
prevention of P31-43 induced decrease of CFTR function (CFTR): Prevents P31-43 Induced Inhibition of CFTR Function
